Measurements published in article PMC8955307, “Nucleobase-Derived Nitrones: Synthesis and Antioxidant and Neuroprotective Activities in an In Vitro Model of Ischemia–Reperfusion” (International Journal of Molecular Sciences, 2022).
“And” between values parts separate entries of the source, which are not always exact repeats. Identical values can stand only once. Like-named read-outs stand apart in the source and are kept apart here.

Columns and labels:
[1] = tested on: SH-SY5Y human neuroblastoma cells; test: Anti-necrotic effect: LDH release after OGD (4 h) and 24 h OGR (IR); format: cell-based; conditions: OGD 4 h + 24 h OGR (IR); for IC50: compounds 0.1 μM to 1 mM, read-out: LDH Release Inhibition IC50 ±SEM; for Emax: read-out: Maximal Inhibition Mean±SEM (LDH release)
Experimental: To induce experimental ischemia, and the sub-consequent cellular damage, the neuroblastoma cultures underwent OGD for 3–4 h, maintained in a glucose-free Dulbecco’s medium inside an anaerobic chamber in the presence of a gas mixture of 95% N2/5% CO2 and humidified at 37 °C at a constant pressure of 0.15 bar. After the OGD period (4 h), medium was substituted by oxygenated 10% FCS-containing medium, and cells were incubated in conditions of normoxia for 24 h to recovery (R24h). The compounds used in the neuroprotection studies: nitrones 9a–i, α-phenyl-N-tert-butyl nitrone (PBN) and N-acetyl-L-cysteine (NAC) (0.01 μM−1000 µM), were added at the beginning of R24h as described. Concurrently, controls in the absence of the OGD procedure were performed by maintaining these cells with Dulbecco’s medium including glucose for 3–4 h in an incubator in conditions of normoxia during the OGD period; thereafter, the medium was changed, and the cells (in the presence or absence of the different study compounds) were returned to the incubator for 24 h of recovery, as described. In addition, experiments including the same amounts of vehicle (final concentration < 1% dimethyl sulfoxide) were performed, serving as controls. The effects of nitrones 9a–g were analyzed three-five times independently using different culture batches, and each experiment was carried out in triplicate.
Anti-necrotic cell activity was evaluated by culturing SHSY5Y cells in 48-well dishes, in a density of 2 × 10^5 cells/well and treating them as controls or under the OGD-R24h procedure, adding the testing compounds at 0.01–1000 µM (see point 4.2.2.). Media of every well were collected in Eppendorf tubes properly labelled and stored at −20 °C until measurement (samples would be needed to measure extracellular NADH). Afterwards, each well was recharged with a 0.1 M Phosphate Buffer with 0.5% Triton X-100, pH 7.5, in order to scratch the cells from the bottom of the well. After a 13.000 rpm centrifugation, the soluble fractions are collected and labelled (samples would be essential to measure intracellular NADH). Finally, LDH activity was quantified as the degree of absorbance declined at 340, indicating the oxidation of NADH to NAD+ as described. Results are expressed as the LDH activity of the extracellular medium referred to the total LDH activity after cell lysis.

[2] = tested on: human neuroblastoma SH-SY5Y cells; test: Superoxide radical production (DHE fluorescence) after OGD and 3 h OGR (IR); format: cell-based; conditions: OGD + 3 h OGR (IR); for EC50: compounds 0.1 to 1000 μM, read-out: Antioxidant Activity EC50 ± SEM (superoxide production); for Emax: read-out: Maximal Activity mean±SEM (antioxidant)
Experimental: A density of 2–2.5 × 10^5 SHSY5Y cells/well was used to seed in 48-well plates to quantify superioxide anion formation. Firstly, cultured cells were exposed to OGD treatment for 3–4 h or maintained in normoxic conditions (controls). Thereafter, medium was replaced with oxygenated Dulbecco’s: Ham’s F12 medium with glucose, 1% Antibiotic-Antimycotic, 1% Gentamicin and 10% FCS. Cells were incubated in the absence (controls) or presence of indicated concentrations of the compounds of study, at 37 °C for 3 h. […] For every condition, the linear regression of fluorescence data (expressed in arbitrary fluorescence units, AFU) was calculated, and the slopes (a) of the best fitting lines (y = ax) were considered as an index of superoxide production, as described previously.

[3] = target: T1, Soybean Lipoxygenase (SLOX) (Glycine max, UniProt P08170); test: In vitro inhibition of soybean lipoxygenase (UV absorbance-based enzyme assay); format: biochemical; conditions: for IC50: soybean LOX, sodium linoleate substrate, pH 9
T1 sequence (P08170 1-839): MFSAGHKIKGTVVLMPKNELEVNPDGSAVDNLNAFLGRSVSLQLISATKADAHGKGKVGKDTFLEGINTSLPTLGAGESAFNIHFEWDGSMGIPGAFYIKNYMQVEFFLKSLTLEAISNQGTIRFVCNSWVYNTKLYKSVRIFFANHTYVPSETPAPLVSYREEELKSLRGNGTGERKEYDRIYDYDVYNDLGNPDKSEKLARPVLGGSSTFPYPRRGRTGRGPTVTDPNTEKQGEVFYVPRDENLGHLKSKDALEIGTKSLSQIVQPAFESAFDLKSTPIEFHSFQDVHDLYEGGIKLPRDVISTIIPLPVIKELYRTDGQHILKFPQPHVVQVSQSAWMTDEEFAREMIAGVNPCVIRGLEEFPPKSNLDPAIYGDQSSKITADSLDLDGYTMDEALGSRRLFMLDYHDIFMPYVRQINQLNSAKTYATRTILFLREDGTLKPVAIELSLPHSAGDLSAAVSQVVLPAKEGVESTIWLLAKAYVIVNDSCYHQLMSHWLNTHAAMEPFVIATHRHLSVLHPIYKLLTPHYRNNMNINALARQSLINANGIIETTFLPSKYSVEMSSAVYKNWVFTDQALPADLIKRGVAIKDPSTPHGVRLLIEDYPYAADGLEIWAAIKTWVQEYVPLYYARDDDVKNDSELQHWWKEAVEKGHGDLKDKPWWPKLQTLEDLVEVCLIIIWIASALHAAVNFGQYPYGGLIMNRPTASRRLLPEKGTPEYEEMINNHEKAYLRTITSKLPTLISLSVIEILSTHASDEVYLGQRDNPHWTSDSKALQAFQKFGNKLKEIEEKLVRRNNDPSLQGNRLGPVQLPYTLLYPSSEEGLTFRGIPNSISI
Experimental: The experimental conditions followed our previously reported protocol. Sodium linoleate was used as a substrate (0.1 mM) with 0.2 mL of the saline solution of SLOX (1/9 × 10^−4 w/v) in the Tris buffer pH 9.

[4] = Hydroxyl radical scavenging (competition with DMSO); conditions: tested at 100 µM
Experimental: The competition of the tested nitrones (100 µM) with DMSO (33 mM) in the phosphate buffer (50 mM), pH 7.4, was used. The hydroxyl radicals were generated by the Fe^3+/ascorbic acid system (EDTA 0.1 mM, Fe^3+ 167 µM, ascorbic acid 10 mM), and the samples were incubated at 37 °C/30 min. A 17% w/v solution of CCl3CO2H was used to stop the radical propagation. The percentage scavenging activity was compared to Trolox used as a reference.

[5] = ABTS radical cation decolorization assay; conditions: tested at 100 µM
Experimental: Approximately 10 µL of the tested compounds in DMSO (100 µM final concentration) were mixed with 200 µL of ABTS∙^+ (100 mM) and 790 µL absolute ethanol. The absorbance value was recorded 1 min after mixing at 734 nm and compared to Trolox.

Structure (SMILES) | IC50 ([1]; Homo sapiens) | Emax ([1]; Homo sapiens) | EC50 ([2]; Homo sapiens) | Emax ([2]; Homo sapiens) | IC50 [3] | OH (%) scavenging [4] | ABTS+ (%) [5] | Maximal Inhibition Mean±SEM (LDH release) [1] | IC50 [1] | Maximal Activity mean±SEM (antioxidant) [2] | EC50 [2] | LOX (%) inhibition ([3]; tested at 100 µM)
Cc1cn(C/C=[N+](/C)[O-])c(=O)[nH]c1=O [9b] | 23.2 ± 2.64 µM | 122 ± 1.84% | 0.72 ± 0.16 µM | 100 ± 2.26% | 79 µM | 73% | 14% | – | – | – | – | –
C/[N+]([O-])=C/Cn1cc(Br)c(=O)n(C/C=[N+](/C)[O-])c1=O [9i] | 43.1 ± 6.5 µM | 121 ± 5.82% | 1.12 ± 0.13 µM | 107 ± 2.72% | 57.5 µM | inactive and No | 75% | – | – | – | – | –
C/[N+]([O-])=C/Cn1cnc2c(N)ncnc21 [9f] | 3.93 ± 0.05 µM | 129 ± 2.26% | 1.4 ± 0.66 µM | 106 ± 9.39% | 31 µM | 66% | 6% | – | – | – | – | –
CC(C)(C)[N+]([O-])=Cc1ccccc1 [PBN, α-phenyl-N-tert-butylnitrone, reference compound] | – | – | – | – | – | no | 5% | 77.51 ±5.75% and ≈ 75% | 5.28 µM and ~5 µM | 93.57±2.94% | 5.86 ± 0.63 µM | 23%
C/[N+]([O-])=C/Cn1cc(Br)c(=O)[nH]c1=O [9d] | 50.2 ± 8.87 µM | 120 ± 4.62% | 46.4 ± 9.49 µM | 114 ± 7.72% | 35 µM | 90% | 12% | – | – | – | – | –
C/[N+]([O-])=C/Cn1cc(Cl)c(=O)[nH]c1=O [9e] | 12 ± 1.71 µM | 98.6 ± 2.24% | 12.9 ± 1.43 µM | 89.3 ± 5.33% | 65 µM | 87% | 19% | – | – | – | – | –
